Laboratory results reported in ChEMBL document CHEMBL5034010, “Novel Cephalosporin Conjugates Display Potent and Selective Inhibition of Imipenemase-Type Metallo-β-Lactamases” (J Med Chem, 2021).
In brackets after ≈: the same amount, converted by molar mass. Activity calls are given as the source filed them. No cut-off for these calls is given here.

What was measured:
Escherichia coli [1] = assay: Inhibition of Metallo-beta-lactamase NDM-1 in Escherichia coli clinical isolate assessed as fold reduction in meropenem MIC at 64 ug/ml; conditions: dose 64.0 µg/ml
Escherichia coli [2] = assay: Substrate activity at Escherichia coli beta-lactamase NDM-1 assessed as compound hydrolysis by measuring kcat/km by Michaelis-Menten analysis
Escherichia coli [3] = assay: Substrate activity at Escherichia coli beta-lactamase VIM-2 assessed as compound hydrolysis by measuring Km by Michaelis-Menten analysis
Enterobacter cloacae [4] = assay: Inhibition of Metallo-beta-lactamase IMP-1 in Enterobacter cloacae clinical isolate assessed as MIC for meropenem antibacterial activity at 64 ug/ml (reference value: 32 ug/ml); conditions: dose 64.0 µg/ml
Klebsiella pneumoniae [5] = assay: Inhibition of Metallo-beta-lactamase IMP-28 in Klebsiella pneumoniae clinical isolate assessed as MIC for meropenem antibacterial activity at 32 ug/ml (reference value: 4 ug/ml); conditions: dose 32.0 µg/ml
Klebsiella pneumoniae [6] = assay: Substrate activity at Klebsiella pneumoniae beta-lactamase IMP-28 assessed as compound hydrolysis by measuring Kcat by Michaelis-Menten analysis
Escherichia coli [7] = assay: Substrate activity at Escherichia coli beta-lactamase VIM-2 assessed as compound hydrolysis by measuring Kcat/Km by Michaelis-Menten analysis
Klebsiella pneumoniae [8] = assay: Substrate activity at Klebsiella pneumoniae beta-lactamase IMP-28 assessed as compound hydrolysis by measuring Km by Michaelis-Menten analysis
Escherichia coli [9] = assay: Inhibition of Metallo-beta-lactamase VIM-2 in Escherichia coli clinical isolate assessed as MIC for meropenem antibacterial activity at 128 ug/ml (reference value: 8 ug/ml); conditions: dose 128.0 µg/ml
Enterobacter cloacae [10] = assay: Inhibition of Metallo-beta-lactamase IMP-1 in Enterobacter cloacae clinical isolate assessed as MIC for meropenem antibacterial activity at 128 ug/ml (reference value: 32 ug/ml); conditions: dose 128.0 µg/ml
Enterobacter cloacae [11] = assay: Inhibition of Metallo-beta-lactamase IMP-1 in Enterobacter cloacae clinical isolate assessed as fold reduction in meropenem MIC at 32 ug/ml; conditions: dose 32.0 µg/ml
[12] = Inhibition of Enterobacter cloacae IMP-1 using nitrocefin chromogenic substrate measured after 15 to 60 min at 25 degC by microplate reader
[13] = Inhibition of Klebsiella pneumoniae beta-lactamase IMP-28 using nitrocefin chromogenic substrate measured after 15 to 60 min at 25 degC by microplate reader
Klebsiella pneumoniae [14] = assay: Inhibition of Metallo-beta-lactamase IMP-28 in Klebsiella pneumoniae clinical isolate assessed as fold reduction in meropenem MIC at 32 ug/ml; conditions: dose 32.0 µg/ml
Escherichia coli [15] = assay: Inhibition of Metallo-beta-lactamase NDM-1 in Escherichia coli clinical isolate assessed as MIC for meropenem antibacterial activity at 32 ug/ml (reference value: 32 ug/ml); conditions: dose 32.0 µg/ml
Escherichia coli [16] = assay: Inhibition of Metallo-beta-lactamase NDM-1 in Escherichia coli clinical isolate assessed as MIC for meropenem antibacterial activity at 128 ug/ml (reference value: 32 ug/ml); conditions: dose 128.0 µg/ml
Escherichia coli [17] = assay: Substrate activity at Escherichia coli beta-lactamase NDM-1 assessed as compound hydrolysis by measuring Km by Michaelis-Menten analysis
[18] = Stability of the compound in Muller hinton broth assessed compound remaining measured after 15 hrs by HPLC analysis; type: physicochemical; conditions: Mueller Hinton broth, read-out: Stability
Enterobacter cloacae [19] = assay: Inhibition of Enterobacter cloacae Metallo-beta-lactamase IMP-1
Enterobacter cloacae [20] = assay: Inhibition of Metallo-beta-lactamase IMP-1 in Enterobacter cloacae clinical isolate assessed as fold reduction in meropenem MIC at 64 ug/ml; conditions: dose 64.0 µg/ml
Klebsiella pneumoniae [21] = assay: Inhibition of Metallo-beta-lactamase IMP-28 in Klebsiella pneumoniae clinical isolate assessed as MIC for meropenem antibacterial activity at 128 ug/ml (reference value: 4 ug/ml); conditions: dose 128.0 µg/ml
Escherichia coli [22] = assay: Inhibition of Metallo-beta-lactamase NDM-1 in Escherichia coli clinical isolate assessed as fold reduction in meropenem MIC at 128 ug/ml; conditions: dose 128.0 µg/ml
Escherichia coli [23] = assay: Substrate activity at Escherichia coli beta-lactamase NDM-1 assessed as compound hydrolysis by measuring Kcat by Michaelis-Menten analysis
Klebsiella pneumoniae [24] = assay: Inhibition of Klebsiella pneumoniae beta Metallo-beta-lactamase IMP-28
Escherichia coli [25] = assay: Substrate activity at Escherichia coli beta-lactamase VIM-2 assessed as compound hydrolysis by measuring Kcat by Michaelis-Menten analysis
[26] = Stability of the compound assessed as Klebsiella pneumoniae beta-lactamase IMP-28-mediated degradation by measuring appearance of vinyl protons release measured after 120 mins by NMR spectra; type: ADME; conditions: 2 h
Escherichia coli [27] = assay: Inhibition of Metallo-beta-lactamase NDM-1 in Escherichia coli clinical isolate assessed as fold reduction in meropenem MIC at 32 ug/ml; conditions: dose 32.0 µg/ml
[28] = Inhibition of Escherichia coli beta-lactamase NDM-1 using nitrocefin chromogenic substrate measured after 15 to 60 min at 25 degC by microplate reader
Enterobacter cloacae [29] = assay: Inhibition of Metallo-beta-lactamase IMP-1 in Enterobacter cloacae clinical isolate assessed as fold reduction in meropenem MIC at 128 ug/ml; conditions: dose 128.0 µg/ml
Klebsiella pneumoniae [30] = assay: Inhibition of Metallo-beta-lactamase IMP-28 in Klebsiella pneumoniae clinical isolate assessed as fold reduction in meropenem MIC at 64 ug/ml; conditions: dose 64.0 µg/ml
Klebsiella pneumoniae [31] = assay: Antibacterial activity against beta-lactamase IMP-28 producing Klebsiella pneumoniae clinical isolate measured upto 128 ug/ml; type: functional, organism-based
Escherichia coli [32] = assay: Inhibition of Metallo-beta-lactamase VIM-2 in Escherichia coli clinical isolate assessed as fold reduction in meropenem MIC at 32 ug/ml; conditions: dose 32.0 µg/ml
Klebsiella pneumoniae [33] = assay: Substrate activity at Klebsiella pneumoniae beta-lactamase IMP-28 assessed as compound hydrolysis by measuring Kcat/Km by Michaelis-Menten analysis
[34] = Inhibition of Escherichia coli beta-lactamase VIM-2 using nitrocefin chromogenic substrate measured after 15 to 60 min at 25 degC by microplate reader
Enterobacter cloacae [35] = assay: Inhibition of Metallo-beta-lactamase IMP-1 in Enterobacter cloacae clinical isolate assessed as MIC for meropenem antibacterial activity at 32 ug/ml (reference value: 32 ug/ml); conditions: dose 32.0 µg/ml
Klebsiella pneumoniae [36] = assay: Inhibition of Metallo-beta-lactamase IMP-28 in Klebsiella pneumoniae clinical isolate assessed as fold reduction in meropenem MIC at 128 ug/ml; conditions: dose 128.0 µg/ml
Escherichia coli [37] = assay: Inhibition of Metallo-beta-lactamase VIM-2 in Escherichia coli clinical isolate assessed as MIC for meropenem antibacterial activity at 64 ug/ml (reference value: 8 ug/ml); conditions: dose 64.0 µg/ml
Escherichia coli [38] = assay: Inhibition of Metallo-beta-lactamase VIM-2 in Escherichia coli clinical isolate assessed as fold reduction in meropenem MIC at 128 ug/ml; conditions: dose 128.0 µg/ml
Escherichia coli [39] = assay: Inhibition of Metallo-beta-lactamase NDM-1 in Escherichia coli clinical isolate assessed as MIC for meropenem antibacterial activity at 64 ug/ml (reference value: 32 ug/ml); conditions: dose 64.0 µg/ml
Escherichia coli [40] = assay: Antibacterial activity against beta-lactamase NDM1 producing Escherichia coli clinical isolate measured upto 128 ug/ml; type: functional, organism-based
Escherichia coli [41] = assay: Inhibition of Metallo-beta-lactamase VIM-2 in Escherichia coli clinical isolate assessed as fold reduction in meropenem MIC at 64 ug/ml; conditions: dose 64.0 µg/ml
Klebsiella pneumoniae [42] = assay: Inhibition of Metallo-beta-lactamase IMP-28 in Klebsiella pneumoniae clinical isolate assessed as MIC for meropenem antibacterial activity at 64 ug/ml (reference value: 4 ug/ml); conditions: dose 64.0 µg/ml
[43] = Metabolic stability of the compound assessed as Klebsiella pneumoniae beta-lactamase IMP-28-mediated metabolism by (2R)-2-((R)-carboxy(2-phenylacetamido)methyl)-5-((carboxy(phenyl)methylthio)methyl)-5,6-dihydro-2H-1,3-thiazine-4-carboxylic acid by LC-MS analysis; type: ADME
Enterobacter cloacae [44] = assay: Antibacterial activity against beta-lactamase IMP1 producing Enterobacter cloacae clinical isolate measured upto 128 ug/ml; type: functional, organism-based
Escherichia coli [45] = assay: Inhibition of Metallo-beta-lactamase VIM-2 in Escherichia coli clinical isolate assessed as MIC for meropenem antibacterial activity at 32 ug/ml (reference value: 8 ug/ml); conditions: dose 32.0 µg/ml
Escherichia coli [46] = assay: Antibacterial activity against beta-lactamase VIM2 producing Escherichia coli clinical isolate measured upto 128 ug/ml; type: functional, organism-based

`O=C(Cc1ccccc1)N[C@@H]1C(=O)N2C(C(=O)O)=C(CSC(C(=O)O)c3ccccc3)CS[C@H]12` (stereo partly specified) gave a fold change (FC) (Escherichia coli [1]) of 2, a kcat/Km (Escherichia coli [2]) of 936000 M⁻¹ s⁻¹ and a Km (Escherichia coli [3]) of 8.28 µM. It also gave an MIC (Enterobacter cloacae [4]) of 0.5 µg/mL (≈ 1 µM), an MIC (Klebsiella pneumoniae [5]) of less than 0.063 µg/mL and a kcat (Klebsiella pneumoniae [6]) of 0.386 s⁻¹. The kcat/Km (Escherichia coli [7]) was 490000 M⁻¹ s⁻¹, the Km (Klebsiella pneumoniae [8]) was 129 µM and the MIC (Escherichia coli [9]) was 1 µg/mL (≈ 2.01 µM). For the same compound, the MIC (Enterobacter cloacae [10]) was 0.5 µg/mL (≈ 1 µM), the fold change (FC) (Enterobacter cloacae [11]) was 32 and the IC50 [12] was 470 nM. It also gave an IC50 [13] of 460 nM, a fold change (FC) (Klebsiella pneumoniae [14]) greater than 64 and an MIC (Escherichia coli [15]) of 16 µg/mL (≈ 32.1 µM). The MIC (Escherichia coli [16]) was 8 µg/mL (≈ 16 µM), the Km (Escherichia coli [17]) was 14 µM and the remaining at 15 h [18] was greater than 95%. The inhibition (Enterobacter cloacae [19]) was “Active”, the fold change (FC) (Enterobacter cloacae [20]) was 64 and the MIC (Klebsiella pneumoniae [21]) was less than 0.063 µg/mL. The fold change (FC) (Escherichia coli [22]) was 4, the kcat (Escherichia coli [23]) was 13.1 s⁻¹ and the inhibition (Klebsiella pneumoniae [24]) was “Active”. The kcat (Escherichia coli [25]) was 4.06 s⁻¹, the Stability [26] was “Stable” and the fold change (FC) (Escherichia coli [27]) was 2. For the same compound, the IC50 [28] was greater than 100000 nM, the fold change (FC) (Enterobacter cloacae [29]) was 64 and the fold change (FC) (Klebsiella pneumoniae [30]) was greater than 64. The Activity (Klebsiella pneumoniae [31]) was “inactive”, the fold change (FC) (Escherichia coli [32]) was 2 and the kcat/Km (Klebsiella pneumoniae [33]) was 3000 M⁻¹ s⁻¹. The IC50 [34] was 10000 nM, the MIC (Enterobacter cloacae [35]) was 1 µg/mL (≈ 2.01 µM) and the fold change (FC) (Klebsiella pneumoniae [36]) was greater than 64. For the same compound, the MIC (Escherichia coli [37]) was 2 µg/mL (≈ 4.01 µM), the fold change (FC) (Escherichia coli [38]) was 8 and the MIC (Escherichia coli [39]) was 16 µg/mL (≈ 32.1 µM). The Activity (Escherichia coli [40]) was “inactive”, the fold change (FC) (Escherichia coli [41]) was 4 and the MIC (Klebsiella pneumoniae [42]) was less than 0.063 µg/mL. The Drug metabolism [43] was “Metabolite_Detected”, the Activity (Enterobacter cloacae [44]) was “inactive” and the MIC (Escherichia coli [45]) was 4 µg/mL (≈ 8.02 µM). The Activity (Escherichia coli [46]) was “inactive”.
